The text below walks through data of patent US12331029B2, “Orexin 1 receptor antagonists” (NXERA PHARMA UK LIMITED, priority 2018, dated 2025).

Assay [1] concerns the target T1, Human OX2 receptor (Homo sapiens, UniProt O43614).
T1 sequence (O43614 1-444): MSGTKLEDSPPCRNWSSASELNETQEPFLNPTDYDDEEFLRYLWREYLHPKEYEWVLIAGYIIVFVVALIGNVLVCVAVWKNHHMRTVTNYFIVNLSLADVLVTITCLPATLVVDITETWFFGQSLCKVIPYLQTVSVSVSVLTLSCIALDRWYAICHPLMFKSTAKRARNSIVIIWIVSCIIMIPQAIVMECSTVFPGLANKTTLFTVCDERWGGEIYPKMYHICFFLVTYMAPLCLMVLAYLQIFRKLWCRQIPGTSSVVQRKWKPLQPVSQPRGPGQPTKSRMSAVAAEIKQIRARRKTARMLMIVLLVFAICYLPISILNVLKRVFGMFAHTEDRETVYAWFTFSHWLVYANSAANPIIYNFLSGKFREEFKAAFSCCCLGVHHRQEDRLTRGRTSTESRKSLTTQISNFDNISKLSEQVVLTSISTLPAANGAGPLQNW
Put plainly: IPone accumulation assay, CHO cells expressing human OX2 receptor. Type of assay: cell-based. The note with it: antagonism of orexin A (EC80) induced inositol phosphate turnover, read-out: fpKb average OX2. The protocol:
(§1) Stable cell lines for the human OX1R and OX2R receptors were generated through the transfection of CHO cells using the transfection reagent Genejuice (Novagen number 70967) and cDNA coding for either the human OX1R or OX2R. Cells were cultured in Sigma Nutrient Mixture F-12 Ham media (catalog number N6658) supplemented with 10% heat-inactivated FBS. Forty-eight hours after transfection, cells were harvested and placed under geneticin selection by culturing in Sigma Nutrient Mixture F-12 Ham media supplemented with 10% heat-inactivated FBS and geneticin (ThermoFisher Catalog number: 10131035). Selection of the final stable clone for each receptor was made on the basis of receptor expression, assay signal to noise and robustness though increasing passage. Selected clones for the human OX1R and OX2R were then frozen down into liquid nitrogen using Cell Freezing Medium-DMSO (Sigma-Aldrich catalog number: C6164).
IPone accumulation assay. A CHO cell line stably expressing either human OX1 or OX2 receptor was used with the IPone HTRF assay kit (CisBio: Part #62IPAPEJ) to measure receptor activation. The assay was optimised to measure the ability (potency; fpKb) of antagonists to reduce agonist (orexin A)-induced inositol phosphate turnover. Briefly, cells were plated onto half area 96-well white walled plates at a density of 12,500 cells/well. Sixteen hours post-plating cell growth media was replaced with antagonist concentration-response curve diluted in stimulation buffer (supplied with the kit). […] After 30 min stimulation in a humidified incubator (37° C.) the assay was terminated by the addition of detection mixture as per manufacturer's instructions. The concentration of compound which reduced orexin-A stimulated turnover of inositol phosphates by 50% (IC50) was calculated by fitting to a four parameter sigmoidal dose response curve. The IC50 values were converted to fpKB values using the orexin A pEC50 value estimated on each plate as well as the challenge concentration interpolated from the orexin A control curve.

Assay [2] deals with T2, Human OX1 receptor (Homo sapiens, UniProt O43613).
T2 sequence (O43613 1-425): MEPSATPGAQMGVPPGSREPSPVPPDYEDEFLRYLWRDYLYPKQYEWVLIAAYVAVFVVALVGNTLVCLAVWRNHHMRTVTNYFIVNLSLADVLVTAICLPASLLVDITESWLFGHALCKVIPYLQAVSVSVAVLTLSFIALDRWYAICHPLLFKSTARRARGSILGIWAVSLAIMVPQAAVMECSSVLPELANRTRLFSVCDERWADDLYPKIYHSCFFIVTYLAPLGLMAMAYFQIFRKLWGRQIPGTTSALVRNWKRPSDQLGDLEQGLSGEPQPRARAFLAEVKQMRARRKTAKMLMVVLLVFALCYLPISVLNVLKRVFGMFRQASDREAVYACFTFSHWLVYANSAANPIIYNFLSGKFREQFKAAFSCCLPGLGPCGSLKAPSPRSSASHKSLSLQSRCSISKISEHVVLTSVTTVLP
In words: IPone accumulation assay, CHO cells expressing human OX1 receptor. Type of assay: cell-based. The note with it: antagonism of orexin A (EC80) induced inositol phosphate turnover, read-out: fpKb average OX1 (converted). Here is the method:
as §1
IPone accumulation assay. A CHO cell line stably expressing either human OX1 or OX2 receptor was used with the IPone HTRF assay kit (CisBio: Part #62IPAPEJ) to measure receptor activation. The assay was optimised to measure the ability (potency; fpKb) of antagonists to reduce agonist (orexin A)-induced inositol phosphate turnover. Briefly, cells were plated onto half area 96-well white walled plates at a density of 12,500 cells/well. Sixteen hours post-plating cell growth media was replaced with antagonist concentration-response curve diluted in stimulation buffer (supplied with the kit). Cells were incubated in a humidified incubator (37° C.) for 30 min before an EC80 challenge concentration (˜20 nM (OX1) and 40 nM (OX2)) of orexin A (Tocris catalogue number 1455). After 30 min stimulation in a humidified incubator (37° C.) the assay was terminated by the addition of detection mixture as per manufacturer's instructions. The concentration of compound which reduced orexin-A stimulated turnover of inositol phosphates by 50% (IC50) was calculated by fitting to a four parameter sigmoidal dose response curve. The IC50 values were converted to fpKB values using the orexin A pEC50 value estimated on each plate as well as the challenge concentration interpolated from the orexin A control curve.

The target of assay [3] is T1, Human OX2 receptor. In words: [3H]-radioligand binding assay, human OX2 receptor membranes.
Method: (§2) Human OX1 or OX2 receptor were cloned into Invitrogen's (ThermoFisher Scientific, UK) Bac-to-Bac Baculovirus Expression System. P0 baculovirus was generated by transfecting SF9 cells with bacmid DNA using Cellfectin® II transfection reagent (ThermoFisher Scientific, UK, Catalog number 10362-100). Following P0 generation P1 virus was then generated ready for large scale infection and membrane preparation. SF21 cells were grown in expression medium ESF921 (Expression Systems, USA, catalog number 96-001-01) supplemented with 10% heat-inactivated FBS and 1% Pen/Strep and were infected at a cell density of 2.5×10^6 cells/mL and a multiplicity of infection of 1.0 for both human OX1R and OX2R. Incubation was carried out at over 48 h in a shaking incubator set at 27° C. The cell culture was then centrifuged at 2,500 rcf for 10 min at 4° C. The pellets were resuspended in cold PBS supplemented with Roche's Complete EDTA-free protease inhibitor cocktail tablets (Roche Applied Sciences, catalog number 05056489001), 1 mM PMSF and 1 mM EDTA. The resuspended cell paste was then centrifuged at 3,273 rcf for 12 min at 4° C. The supernatant was discarded and the pellet frozen at −80° C. The cell pellet from a 4 L culture was resuspended in buffer containing 50 mM HEPES pH 7.5, 150 mM NaCl, 8 Roche EDTA-Free protease inhibitor cocktail tablets and 1 mM PMSF. The suspension was left stirring at rt for 1 h and then homogenised for 90 s at 9,500 rpm using a VDI 25 (VWR, USA) homogeniser. The cells were then lysed using a Microfluidiser processor M-110L Pneumatic (Microfluidics, USA) at 60 PSI and membranes collected by ultracentrifugation at 204.7 k×g for 1 h. The supernatant was discarded and the pellet was resuspended and homogenised in 90 s at 9,500 rpm in 50 mL (25 mL for each 2 L culture) of buffer containing 50 mM Hepes pH 7.5, 150 mM NaCl, 3 Roche EDTA-free protease inhibitor cocktail tablets and 1 mM PMSF. The resulting membranes were then stored at −80° C.
(§3) [^3H]-radioligand binding assay. After thawing, membrane homogenates were re-suspended in the binding buffer (8.5 mM HEPES, pH 7.4, 1.3 mM CaCl2, 1.2 mM MgSO4, 118 mM NaCl, 4.7 mM KCl, 4 mM NaHCO3, 1.2 mM KH2PO4, 11 mM glucose) to a final assay concentration of 6.4 μg (OX1) or 1.4 μg (OX2) protein per well. Saturation isotherms were determined by the addition of various concentrations (0-30 nM) of [^3H]-4-(2,6-difluoro-4-methoxybenzyl)-2-(5,6-dimethoxypyridin-3-yl)-2H-1,2,4-benzothiadiazin-3(4H)-one 1,1-dioxide (Christopher et al, MedChemComm., 2015, 6, 947-955) in a total reaction volume of 250 μL for 90 min at rt. At the end of the incubation, membranes were filtered onto a 96-well GF/B filter pre-incubated with 0.5% polyethylenimine, with a Tomtec cell harvester and washed 5 times with 0.5 mL distilled water. Non-specific binding (NSB) was measured in the presence of 3.33 μM [4-(5-chloro-1,3-benzoxazol-2-yl)-7-methyl-1,4-diazepan-1-yl][5-methyl-2-(2H-1,2,3-triazol-2-yl)phenyl]methanone (Wertz et al, Angew. Chem. Int. Ed., 2011, 50, 11511-11515). Radioactivity on the filter was counted (1 min) on a Microbeta radiometric plate counter (Perkin Elmer) after addition of 50 μL of scintillation fluid (LabLogic: Part #SG-BXX-14). […] IC50 values were derived from the inhibition curve and the equilibrium dissociation constant (Ki) values were calculated using the Cheng-Prusoff equation.
The target in assay [4] is T2, Human OX1 receptor. Put plainly: [3H]-radioligand binding assay, human OX1 receptor membranes.
Method: as §2, §3

For `COc1cccc(-c2ncc(F)cn2)c1C(=O)N[C@H]1CCC[C@@H]1COc1ccc(F)cc1` [Example 13, N-[(1S,2S)-2-[(4-fluorophenoxy)methyl]cyclopentyl]-2-(5-fluoropyrimidin-2-yl)-6-methoxy-benzamide], the Kb at Human OX2 receptor [1] was above 631 nM; at Human OX1 receptor [2], 31.6 nM. Also, the inhibition constant (Ki) on Human OX2 receptor [3] is 1580 nM; at Human OX1 receptor [4], 12.6 nM.

Consider `[2H]C([2H])([2H])Oc1cccc(-n2nccn2)c1C(=O)N[C@H]1CCC[C@@H]1COc1ccc(F)cc1` [Example 14, N-[(1S,2S)-2-[(4-fluorophenoxy)methyl]cyclopentyl]-2-(triazol-2-yl)-6-(trideuteriomethoxy)benzamide], for which the Kb on Human OX2 receptor [1] was above 501 nM; at Human OX1 receptor [2], 1 nM. The figures for the Ki on Human OX2 receptor [3] and on Human OX1 receptor [4] were 126 nM and 1.26 nM, respectively.

Consider `[2H]C([2H])(Oc1ccc(F)cc1)[C@H]1CCC[C@@H]1NC(=O)c1c(OC)cccc1-n1nccn1` [Example 7, N-[(1S,2S)-2-[dideuterio-(4-fluorophenoxy)methyl]cyclopentyl]-2-methoxy-6-(triazol-2-yl)benzamide], for which the Kb at Human OX2 receptor [1] was above 794 nM; at Human OX1 receptor [2], 0.794 nM. The Ki at Human OX2 receptor [3] is 158 nM; on Human OX1 receptor [4], 2.51 nM.

As to `COc1cccc(-n2nccn2)c1C(=O)N[C@H]1CCC[C@@H]1COc1ccc(F)cc1` [Example 5, N-[(1S,2S)-2-[(4-fluorophenoxy)methyl]cyclopentyl]-2-methoxy-6-(triazol-2-yl)benzamide], the figures for the Kb at Human OX2 receptor [1] and at Human OX1 receptor [2] were above 501 nM and 1.58 nM, respectively. In addition, the values for the inhibition constant Ki at Human OX2 receptor [3] and on Human OX1 receptor [4] were 200 nM and 1.58 nM, respectively.

Regarding `O=C(N[C@H]1CCC[C@@H]1COc1ccc(F)cc1)c1ccccc1-n1nccn1` [Example 1, N-[(1S,2S)-2-[(4-fluorophenoxy)methyl]cyclopentyl]-2-(triazol-2-yl)benzamide], the Kb was above 1580 nM at Human OX2 receptor [1] and 126 nM on Human OX1 receptor [2]. Also, the Ki on Human OX2 receptor [3] is above 3160 nM; at Human OX1 receptor [4], 10 nM.

As to `COc1nccc(-n2nccn2)c1C(=O)N[C@H]1CCC[C@@H]1COc1ccc(F)cc1` [Example 29, N-[(1S,2S)-2-[(4-fluorophenoxy)methyl]cyclopentyl]-2-methoxy-4-(triazol-2-yl)pyridine-3-carboxamide], the Kb on Human OX2 receptor [1] is above 631 nM; at Human OX1 receptor [2] it was 39.8 nM. Also, the results for the inhibitory constant (Ki) on Human OX2 receptor [3] and at Human OX1 receptor [4] were 794 nM and 6.31 nM, respectively.

For `COc1cccc(-n2nccn2)c1C(=O)N[C@H]1CCC[C@@H]1COc1ccc(Cl)cc1` [Example 6, N-[(1S,2S)-2-[(4-chlorophenoxy)methyl]cyclopentyl]-2-methoxy-6-(triazol-2-yl)benzamide], the Kb at Human OX2 receptor [1] is above 794 nM; on Human OX1 receptor [2], 6.31 nM. For the same compound, the values for the Ki on Human OX2 receptor [3] and at Human OX1 receptor [4] were 200 nM and 2.51 nM, respectively.

Regarding `COCc1ccc(-n2nccn2)c(C(=O)N[C@H]2CCC[C@@H]2COc2ccc(F)cc2)n1` [Example 18, N-[(1S,2S)-2-[(4-fluorophenoxy)methyl]cyclopentyl]-6-(methoxymethyl)-3-(triazol-2-yl)pyridine-2-carboxamide], the results for the Kb on Human OX2 receptor [1] and on Human OX1 receptor [2] were above 1260 nM and 63.1 nM, respectively. For the same compound, the figures for the Ki on Human OX2 receptor [3] and on Human OX1 receptor [4] were above 5010 nM and 7.94 nM, respectively.

Regarding `O=C(N[C@H]1CCC[C@@H]1COc1ccc(Cl)cc1)c1ncccc1-c1ncccn1` [Example 27, N-[(1S,2S)-2-[(4-chlorophenoxy)methyl]cyclopentyl]-3-pyrimidin-2-yl-pyridine-2-carboxamide], the Kb on Human OX2 receptor [1] was above 2510 nM; on Human OX1 receptor [2], 316 nM. Further, the Ki on Human OX2 receptor [3] was above 5010 nM; on Human OX1 receptor [4], 20 nM.

In the case of `COc1cccc(-c2ccncn2)c1C(=O)N[C@H]1CCC[C@@H]1COc1ccc(F)cc1` [Example 12, N-[(1S,2S)-2-[(4-fluorophenoxy)methyl]cyclopentyl]-2-methoxy-6-pyrimidin-4-yl-benzamide], the Kb is above 631 nM on Human OX2 receptor [1] and 12.6 nM at Human OX1 receptor [2]. Also, the Ki is 1000 nM at Human OX2 receptor [3] and 3.16 nM at Human OX1 receptor [4].

As to `O=C(N[C@H]1CCC[C@@H]1COc1ccc(F)cc1F)c1ncccc1-c1ncccn1` [Example 26, N-[(1S,2S)-2-[(2,4-difluorophenoxy)methyl]cyclopentyl]-3-pyrimidin-2-yl-pyridine-2-carboxamide], the results for the Kb on Human OX2 receptor [1] and at Human OX1 receptor [2] were above 794 nM and 251 nM, respectively. The Ki is above 3160 nM at Human OX2 receptor [3] and 12.6 nM on Human OX1 receptor [4].

Turning to `COc1ccc(-n2nccn2)c(C(=O)N[C@H]2CCC[C@@H]2COc2ccc(Cl)cc2)n1` [Example 21, N-[(1S,2S)-2-[(4-chlorophenoxy)methyl]cyclopentyl]-6-methoxy-3-(triazol-2-yl)pyridine-2-carboxamide], the Kb at Human OX2 receptor [1] is above 631 nM; at Human OX1 receptor [2], 794 nM. In addition, the inhibitory constant (Ki) was above 5010 nM on Human OX2 receptor [3] and 12.6 nM at Human OX1 receptor [4].

As for `O=C(N[C@H]1CCC[C@@H]1COc1ccc(F)cc1)c1ncccc1-c1ncccn1` [Example 25, N-[(1S,2S)-2-[(4-fluorophenoxy)methyl]cyclopentyl]-3-pyrimidin-2-yl-pyridine-2-carboxamide], the Kb is above 631 nM at Human OX2 receptor [1] and 79.4 nM on Human OX1 receptor [2]. For the same compound, the Ki on Human OX2 receptor [3] was above 3160 nM; on Human OX1 receptor [4], 7.94 nM.

Regarding `COc1nccc(-c2ncccn2)c1C(=O)N[C@H]1CCC[C@@H]1COc1ccc(F)cc1` [Example 30, N-[(1S,2S)-2-[(4-fluorophenoxy)methyl]cyclopentyl]-2-methoxy-4-pyrimidin-2-yl-pyridine-3-carboxamide], the values for the Kb on Human OX2 receptor [1] and at Human OX1 receptor [2] were above 631 nM and 25.1 nM, respectively. In addition, the Ki at Human OX2 receptor [3] was above 1260 nM; on Human OX1 receptor [4], 7.94 nM.

As to `Cc1ccc(-n2nccn2)c(C(=O)N[C@H]2CCC[C@@H]2COc2ccc(F)cc2)n1` [Example 22, N-[(1S,2S)-2-[(4-fluorophenoxy)methyl]cyclopentyl]-6-methyl-3-(triazol-2-yl)pyridine-2-carboxamide], the Kb at Human OX2 receptor [1] was above 1260 nM; on Human OX1 receptor [2], 25.1 nM. Further, the results for the Ki on Human OX2 receptor [3] and at Human OX1 receptor [4] were above 3160 nM and 3.98 nM, respectively.

On to `COc1cccc(-c2ncccn2)c1C(=O)N[C@H]1CCC[C@@H]1COc1ccc(F)cn1` [Example 32, N-[(1S,2S)-2-[(5-fluoro-2-pyridyl)oxymethyl]cyclopentyl]-2-methoxy-6-pyrimidin-2-yl-benzamide], for which the Kb is above 2510 nM at Human OX2 receptor [1] and 50.1 nM on Human OX1 receptor [2]. Besides, the Ki at Human OX2 receptor [3] is 2000 nM; on Human OX1 receptor [4], 20 nM.
